In one data set the test system is peripheral blood mononuclear cells. As to the kind of experiment: [3H]-thymidine incorporation (proliferation), anti-CD3 stimulated. The format is cell-based. The following applies: Homo sapiens, PBMC; Table 9; 5 ng/ml anti-CD3 Ab for 48 h. The text has this:
[^3H]-thymidine incorporation is a widely used test to assay the proliferative activity of human and rodent lymphocytes. As cells divide [^3H]-thymidine will be incorporated into the newly synthesised DNA of the resulting daughter cells. The faster cells grow the more radioactive [^3H]-thymidine will be incorporated. Any compound that inhibits lymphocytes proliferation will reduce the uptake of radioactivity by the cells treated with it compared to the untreated controls.
The selected compounds were tested to determine its ability to inhibit [^3H]-thymidine incorporation and the results are set out in table 6 below. Resting peripheral blood mononuclear cells from healthy volunteers were seeded at 2×10^5 cells per well in medium (RPMI 1640 supplemented 10% fetal calf serum, 2 mM glutamine, 1 mM sodium pyruvate, 1% nonessential amino acids, 100 units/ml penicillin, 100 μg/ml streptomycin and 50 μM β-mercaptoethanol) in flat-bottom 96 well plates (final volume 200 μl). Cells were pre-incubated with the compound of example 2 for 60 min, and were stimulated with 5 ng/ml anti-CD3 Ab for 48 h. [^3H]-Thymidine (1 μCi per well) was added for the last 6 h. Cells were harvested onto glass fibre filters and radioactivity measured in a scintillation counter. All experiments were done in triplicate. Results are normalised for maximum [^3H]-thymidine incorporation by control.
(In general: Dividing cells build labelled thymidine or BrdU into new DNA.)
A word on the EC50: it is the concentration needed to bring the measured effect to its halfway point. Read a high EC50 as lower potency in that assay. In turn, `COc1c(O)c(C(C)=O)c(OCc2ccc(Cl)cc2)c2ccoc12` [Compound 22] displayed a 50% effective concentration (EC50) of 2500 nM.
The same measure, in the same setting: with `COc1c(C(C)=O)c(O)c(OCc2ccc(Br)cc2)c2occc12` [Compound 55] the figure was 2500 nM; with `COc1c(C(C)=O)c(O)c(OCCCc2ccccc2)c2occc12` [Compound 41], 1000 nM.

Test system in the next data set: not given
Test: not given
Settings: not given
The melting point is the temperature, or range, at which the solid turns liquid. `COc1c(C(C)=O)c(O)c(OCc2ccc(OCc3ccccc3)cc2)c2occc12` [Compound 61] came in with a melting point of 118 to 120 °C.
Same read-out and setting: under `COc1c(O)c(C(C)=O)c(OCCCCCOc2c(C(C)=O)c(O)c(OC)c3occc23)c2ccoc12` [Compound 85] stands 139 to 141 °C; under `COc1c(O)c(C(C)=O)c(OCc2ccc(C(=O)c3ccccc3)cc2)c2ccoc12` [Compound 31], 132 to 134 °C.
Same read-out and setting: under `COc1c(C(C)=O)c(O)c(OCc2cccc(Cl)c2)c2occc12` [Compound 49] stands 105 to 108 °C; under `COc1c(O)c(C(C)=O)c(OCc2ccccc2C)c2ccoc12` [Compound 13], 101 to 103 °C; under `COc1c(C(C)=O)c(O)c(OCc2ccc(C(C)(C)C)cc2)c2occc12` [Compound 58], 117 to 118 °C.
Still for that read-out and setting: under `COc1c(C(C)=O)c(O)c(OCc2ccccc2-c2ccccc2)c2occc12` [Compound 47] stands 115 to 117 °C.
`CC(=O)c1c(O)c(OCc2ccccc2)c2occc2c1OCc1ccccc1` [Compound 82] gave a melting point of 74 to 76 °C.
Same read-out and setting: with `COc1c(O)c(C(C)=O)c(OCCCCc2ccccc2)c2ccoc12` [Compound 9] the figure was 121 to 122 °C; with `COc1c(O)c(C(C)=O)c(OCc2ccc(OCc3ccccc3)cc2)c2ccoc12` [Compound 30], 155 to 157 °C.
On to `COc1c(C(C)=O)c(O)c(OCc2ccc(F)cc2)c2occc12` [Compound 53], for which the melting point is 99 to 100 °C.
Still for that read-out and setting: with `COc1c(O)c(C(C)=O)c(OCc2cccc(C)c2)c2ccoc12` [Compound 17] the figure was 99 to 101 °C.
The same measure, in the same setting: under `COc1c(O)c(C(C)=O)c(OCc2ccc(C(C)C)cc2)c2ccoc12` [Compound 25] stands 73 to 75 °C; under `COc1c(C(C)=O)c(O)c(OCc2cccc([N+](=O)[O-])c2)c2occc12` [Compound 52], 157 to 159 °C; under `COc1c(C(C)=O)c(O)c(OCc2ccccc2C)c2occc12` [Compound 46], 86 to 88 °C.
The same measure, in the same setting: under `COc1c(C(C)=O)c(O)c(OCc2ccc(C(=O)O)cc2)c2occc12` [Compound 63] stands 208 to 209 °C.
For `COc1c(C(C)=O)c(O)c(OCc2ccccc2Cl)c2occc12` [Compound 45], the melting point was in the range of 104 to 107 °C.
The same measure, in the same setting: with `COc1c(O)c(C(C)=O)c(OCc2ccc(Cl)cc2)c2ccoc12` [Compound 22] the figure was 106 to 108 °C.
Same read-out and setting: with `COc1c(O)c(C(C)=O)c(OCc2ccc(C(=O)O)cc2)c2ccoc12` [Compound 32] the figure was 183 to 186 °C; with `COc1c(C(C)=O)c(O)c(OCc2cccc(C)c2)c2occc12` [Compound 50], 81 to 82 °C.
On the same count and under the same terms, with `COc1c(C(C)=O)c(O)c(OCc2ccc(Cl)cc2)c2occc12` [Compound 54] the figure was 110 °C; with `COc1c(C(C)=O)c(O)c(OCCCCCc2ccccc2)c2occc12` [Compound 43], 31 to 32 °C; with `COc1c(O)c(C(C)=O)c(OCc2cccc(F)c2)c2ccoc12` [Compound 15], 118 to 121 °C.
Turning to `COc1c(C(C)=O)c(O)c(OCc2cccc(F)c2)c2occc12` [Compound 48], the melting point fell in the range of 89 to 91 °C.
In turn, `COc1c(C(C)=O)c(O)c(OCc2ccc(-c3ccccc3)cc2)c2occc12` [Compound 59] yielded a melting point of 126 to 127 °C.
Still for that read-out and setting: under `COc1c(C(C)=O)c(O)c(OCc2ccc(Br)cc2)c2occc12` [Compound 55] stands 106 to 107 °C; under `COc1c(O)c(C(C)=O)c(OCc2ccccc2F)c2ccoc12` [Compound 11], 105 to 108 °C; under `COc1c(C(C)=O)c(O)c(OCCCCCCOc2c(O)c(C(C)=O)c(OC)c3ccoc23)c2occc12` [Compound 92], 109 to 111 °C.
`COc1c(C(C)=O)c(O)c(OCCCc2ccccc2)c2occc12` [Compound 41]: the melting point is 36 °C.
Same read-out and setting: under `COc1c(C(C)=O)c(O)c(OCCCCc2ccccc2)c2occc12` [Compound 42] stands 28 °C; under `COc1c(O)c(C(C)=O)c(OCCCCOc2c(C(C)=O)c(O)c(OC)c3occc23)c2ccoc12` [Compound 84], 209 to 211 °C; under `COc1c(O)c(C(C)=O)c(OCc2cccc3ccccc23)c2ccoc12` [Compound 4], 96 to 98 °C.
Same read-out and setting: under `COc1c(C(C)=O)c(O)c(OCCCCCOc2c(O)c(C(C)=O)c(OC)c3ccoc23)c2occc12` [Compound 91] stands 132 to 134 °C; under `COc1c(O)c(C(C)=O)c(OCc2cccc(COc3c(C(C)=O)c(O)c(OC)c4occc34)c2)c2ccoc12` [Compound 88], 184 to 186 °C.
Compound `COc1c(O)c(C(C)=O)c(OCc2cccc(OC(F)(F)F)c2)c2ccoc12` [Compound 19] displayed a melting point of 86 to 88 °C.
Same read-out and setting: with `COc1c(O)c(C(C)=O)c(OCc2ccc(OC(F)(F)F)cc2)c2ccoc12` [Compound 29] the figure was 130 to 131 °C; with `COc1c(O)c(C(C)=O)c(OCc2ccccc2-c2ccccc2)c2ccoc12` [Compound 14], 126 to 127 °C.
On the same count and under the same terms, under `COc1c(C(C)=O)c(O)c(OCc2ccc(C(F)(F)F)cc2)c2occc12` [Compound 56] stands 90 to 91 °C; under `COc1c(O)c(C(C)=O)c(OCc2ccc(F)cc2)c2ccoc12` [Compound 21], 100 to 102 °C; under `COc1c(C(C)=O)c(O)c(OCc2ccccc2F)c2occc12` [Compound 44], 89 to 92 °C.
Still for that read-out and setting: under `COc1c(O)c(C(C)=O)c(OCc2cccc([N+](=O)[O-])c2)c2ccoc12` [Compound 20] stands 160 to 162 °C; under `COc1c(O)c(C(C)=O)c(OCc2ccc(C(C)(C)C)cc2)c2ccoc12` [Compound 26], 82 to 87 °C; under `COc1c(O)c(C(C)=O)c(OCc2ccc(C(F)(F)F)cc2)c2ccoc12` [Compound 24], 104 to 106 °C.
For `COc1c(O)c(C(C)=O)c(OCc2cccc(Cl)c2)c2ccoc12` [Compound 16], the melting point fell in the range of 108 to 111 °C.
The same measure, in the same setting: under `COc1c(O)c(C(C)=O)c(OCCCCCCCOc2c(C(C)=O)c(O)c(OC)c3occc23)c2ccoc12` [Compound 87] stands 122 to 125 °C.
Turning to `COc1c(O)c(C(C)=O)c(OCCCCCCOc2c(C(C)=O)c(O)c(OC)c3occc23)c2ccoc12` [Compound 86], the melting point lay in the range of 147 to 151 °C.
The same measure, in the same setting: with `COc1c(O)c(C(C)=O)c(OCc2ccccc2Cl)c2ccoc12` [Compound 12] the figure was 84 to 86 °C; with `COc1c(O)c(C(C)=O)c(OCCCc2ccccc2)c2ccoc12` [Compound 8], 94 to 95 °C; with `COc1c(C(C)=O)c(O)c(OCc2ccc(COc3c(O)c(C(C)=O)c(OC)c4ccoc34)cc2)c2occc12` [Compound 95], 184 to 186 °C.
On the same count and under the same terms, with `COc1c(O)c(C(C)=O)c(OCc2ccc(-c3ccccc3)cc2)c2ccoc12` [Compound 27] the figure was 163 to 167 °C; with `COc1c(O)c(C(C)=O)c(OCc2ccccc2)c2ccoc12` [Compound 6], 93 to 94 °C.
On the same count and under the same terms, under `COc1c(C(C)=O)c(O)c(OCc2cccc(COc3c(O)c(C(C)=O)c(OC)c4ccoc34)c2)c2occc12` [Compound 94] stands 125 to 128 °C.
Turning to `COc1c(O)c(C(C)=O)c(OCc2ccc(COc3c(C(C)=O)c(O)c(OC)c4occc34)cc2)c2ccoc12` [Compound 89], the melting point lay within 201 to 203 °C.
The same measure, in the same setting: under `COc1c(C(C)=O)c(O)c(OCc2ccc(C(C)C)cc2)c2occc12` [Compound 57] stands 80 to 83 °C; under `COc1c(C(C)=O)c(O)c(OCc2ccccc2)c2occc12` [Compound 39], 79 to 80 °C.
The same measure, in the same setting: under `COc1c(C(C)=O)c(O)c(OCc2ccc3ccccc3c2)c2occc12` [Compound 38] stands 114 to 115 °C.
The compound `COc1c(C(C)=O)c(O)c(OCCc2ccccc2)c2occc12` [Compound 40] displayed a melting point of 102 to 104 °C.
On the same count and under the same terms, under `COc1c2occc2c(OCCCCc2ccccc2)c2c(=O)cc(C)oc12` [Compound 99] stands 121 to 122 °C.

In a further data set the target is Kv1.3 (Homo sapiens, UniProt P22001).
Chain of Kv1.3 (P22001 whole entry): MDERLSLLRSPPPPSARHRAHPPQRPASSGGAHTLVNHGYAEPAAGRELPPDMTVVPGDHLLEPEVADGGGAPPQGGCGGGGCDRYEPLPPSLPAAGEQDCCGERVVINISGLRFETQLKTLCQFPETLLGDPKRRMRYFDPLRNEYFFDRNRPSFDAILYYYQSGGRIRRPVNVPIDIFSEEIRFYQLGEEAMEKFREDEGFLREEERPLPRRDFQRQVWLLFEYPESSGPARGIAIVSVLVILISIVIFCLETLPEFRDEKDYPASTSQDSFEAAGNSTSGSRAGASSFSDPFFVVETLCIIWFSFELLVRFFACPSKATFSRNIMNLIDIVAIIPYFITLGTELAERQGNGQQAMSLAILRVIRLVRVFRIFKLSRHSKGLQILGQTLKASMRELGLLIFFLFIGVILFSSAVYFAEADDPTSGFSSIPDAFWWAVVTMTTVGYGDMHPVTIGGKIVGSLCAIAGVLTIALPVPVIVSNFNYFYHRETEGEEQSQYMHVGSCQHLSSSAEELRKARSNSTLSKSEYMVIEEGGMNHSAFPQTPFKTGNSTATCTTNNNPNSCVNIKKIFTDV
Test: not given
The following applies: cited from earlier work.
As for `COc1c(C(C)=O)c(O)c(OC)c2occc12` [Khellinone], the “blocking activity on the Kv1.3 channel” value is on record as “exhibit blocking activity”.

The data set is the same for the next values; noted with them: result in words; cited from earlier work.
In the case of `COc1c2occc2cc2ccc(=O)oc12` [Compound 8-MOP, 8-Methoxypsoralen], the “blocking activity on the Kv1.3 channel” value is listed as “exhibit blocking activity”.

Source of the values: patent US8063093B2, “Potassium channel blockers and uses thereof” (priority 2005, dated 2011).
